Reference: patent US12492186B2, “Bicyclic heterocyclic compounds useful as IRAK4 inhibitors” (BRISTOL-MYERS SQUIBB COMPANY, priority 2019, dated 2025)

Experiments:
Human whole blood = assay: IRAK4 Whole Blood Assay (IL-6 levels after stimulation with TLR2 agonist lipoteichoic acid); type: cell-based; details: 10 μg/mL lipoteichoic acid, 5 hours
Description: Human whole blood containing the anti-coagulant ACD-A was plated in 384-well plate (25 μL/well) and incubated with compounds for 60 minutes at 37° C. in a 5% CO2 incubator. The blood was stimulated with a TLR2 agonist, 10 μg/mL final concentration of lipoteichoic acid (Invivogen, San Diego, CA) in 25 μL RPMI (Gibco) for 5 hours in a 5% CO2 incubator. At the end of the incubation, plates were centrifuged at 2300 rpm for 5 minutes. Supernatants were harvested and analyzed for IL-6 levels by Flow Cytometry beads assay (BD Biosciences, San Jose, CA).

IRAK4 = IRAK4 (Homo sapiens (Human), UniProt Q9NWZ3); assay: IRAK4 Inhibition Assay; type: biochemical; details: ATP 500 μM; IRAK4 0.6 nM; 60 min room temperature; Caliper LABCHIP 3000
Description: The assays were performed in U-bottom 384-well plates. The final assay volume was 30 μL prepared from 15 μL additions of enzyme and substrates (fluoresceinated peptide and ATP) and test compounds in assay buffer (20 mM HEPES pH 7.2, 10 mM MgCl2, 0.015% Brij 35 and 4 mM DTT). The reaction was initiated by the combination of IRAK4 with substrates and test compounds. The reaction mixture was incubated at room temperature for 60 min. and terminated by adding 45 μL of 35 mM EDTA to each sample. The reaction mixture was analyzed on the Caliper LABCHIP® 3000 (Caliper, Hopkinton, MA) by electrophoretic separation of the fluorescent substrate and phosphorylated product. Inhibition data were calculated by comparison to no enzyme control reactions for 100% inhibition and vehicle-only reactions for 0% inhibition. The final concentrations of reagents in the assays are ATP, 500 μM; FL-IPTSPITTTYFFFKKK peptide 1.5 μM; IRAK4, 0.6 nM; and DMSO, 1.6%.

IRAK4, sequence (Q9NWZ3 whole entry, species assumed): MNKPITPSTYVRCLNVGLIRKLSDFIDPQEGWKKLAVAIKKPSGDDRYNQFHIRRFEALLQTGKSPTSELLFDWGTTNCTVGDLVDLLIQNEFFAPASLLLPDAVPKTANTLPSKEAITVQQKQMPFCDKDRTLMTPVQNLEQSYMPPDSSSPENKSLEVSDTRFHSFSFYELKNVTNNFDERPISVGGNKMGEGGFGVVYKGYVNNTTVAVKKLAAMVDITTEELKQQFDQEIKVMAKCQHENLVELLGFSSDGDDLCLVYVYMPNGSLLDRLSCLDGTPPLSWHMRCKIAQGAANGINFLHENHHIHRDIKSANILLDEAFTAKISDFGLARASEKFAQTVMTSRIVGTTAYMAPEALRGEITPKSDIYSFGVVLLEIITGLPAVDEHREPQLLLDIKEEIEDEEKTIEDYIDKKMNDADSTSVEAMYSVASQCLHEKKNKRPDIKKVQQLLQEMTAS

| EC50 (Human whole blood) [µM] | IC50 (IRAK4) [µM] | SMILES |
| --- | --- | --- |
| 0.501 | 0.0026 | CC(C)Nc1c(C(=O)NC[C@@H](F)C(C)(C)O)cnc2ccc(-c3cn[nH]c3)cc12 [Example 1, (R)—N-(2-fluoro-3-hydroxy-3-methylbutyl)-4-(isopropylamino)-6-(1H-pyrazol-4-yl) quinoline-3-carboxamide] |
| 5.71 | 0.0082 | CC(C)Nc1c(C(=O)NC[C@@H](F)C(C)(C)O)cnc2ccc(-c3cncs3)cc12 [Example 7, (R)—N-(2-fluoro-3-hydroxy-3-methylbutyl)-4-(isopropylamino)-6-(thiazol-5-yl)quinoline-3-carboxamide] |
| 2.26 | 0.015 | CCOCCNC(=O)c1cnc2ccc(-c3cn[nH]c3)cc2c1NC(C)C [Example 10, N-(2-ethoxyethyl)-4-(isopropylamino)-6-(1H-pyrazol-4-yl)quinoline-3-carboxamide] |
| 1.67 | 0.0095 | CC(C)Nc1c(C(=O)N[C@H]2CC[C@H](O)CC2)cnc2ccc(-c3cn[nH]c3)cc12 [Example 11, N-((1r,4r)-4-hydroxycyclohexyl)-4-(isopropylamino)-6-(1H-pyrazol-4-yl)quinoline-3-carboxamide] |
| 0.868 | 0.0141 | CC(C)Nc1c(C(=O)NCc2cnco2)cnc2ccc(-c3cn[nH]c3)cc12 [Example 14, 4-(isopropylamino)-N-(oxazol-5-ylmethyl)-6-(1H-pyrazol-4-yl)quinoline-3-carboxamide] |
| 0.675 | 0.0077 | CC(C)CCNC(=O)c1cnc2ccc(-c3cn[nH]c3)cc2c1NC(C)C [Example 15, N-isopentyl-4-(isopropylamino)-6-(1H-pyrazol-4-yl)quinoline-3-carboxamide] |
| 0.936 | 0.008 | CC(C)Nc1c(C(=O)NCCC(C)(C)O)cnc2ccc(-c3cn[nH]c3)cc12 [Example 17, N-(3-hydroxy-3-methylbutyl)-4-(isopropylamino)-6-(1H-pyrazol-4-yl)quinoline-3-carboxamide] |
| 6.45 | 0.0075 | CC(C)Nc1c(C(=O)NCc2nnc[nH]2)cnc2ccc(-c3cn[nH]c3)cc12 [Example 22, N-((4H-1,2,4-triazol-3-yl)methyl)-4-(isopropylamino)-6-(1H-pyrazol-4-yl)quinoline-3-carboxamide] |
| 1.7 | 0.0072 | CC(C)Nc1c(C(=O)N[C@H]2CC[C@H](N)CC2)cnc2ccc(-c3cn[nH]c3)cc12 [Example 23, N-((1r,4r)-4-aminocyclohexyl)-4-(isopropylamino)-6-(1H-pyrazol-4-yl)quinoline-3-carboxamide] |
| 0.584 | 0.0077 | CC(=O)N[C@H]1CC[C@H](NC(=O)c2cnc3ccc(-c4cn[nH]c4)cc3c2NC(C)C)CC1 [Example 24, N-((1r,4r)-4-acetamidocyclohexyl)-4-(isopropylamino)-6-(1H-pyrazol-4-yl)quinoline-3-carboxamide] |
| 1.28 | 0.0033 | COC(=O)N[C@H]1CC[C@H](NC(=O)c2cnc3ccc(-c4cn[nH]c4)cc3c2NC(C)C)CC1 [Example 25, methyl ((1r,4r)-4-(4-(isopropylamino)-6-(1H-pyrazol-4-yl)quinoline-3-carboxamido)cyclohexyl)carbamate] |
| 1.46 | 0.0123 | COC(=O)N[C@H]1CC[C@H](NC(=O)c2cnc3ccc(-c4cn[nH]c4)cc3c2NC(C)C)C1 [Example 26, methyl ((1S,3S)-3-(4-(isopropylamino)-6-(1H-pyrazol-4-yl)quinoline-3-carboxamido)cyclopentyl) carbamate] |
| 2.82 | 0.0089 | CCNc1c(C(=O)NC[C@@H](F)C(C)(C)O)cnc2ccc(-c3cn[nH]c3)cc12 [Example 27, (R)-4-(ethylamino)-N-(2-fluoro-3-hydroxy-3-methylbutyl)-6-(1H-pyrazol-4-yl)quinoline-3-carboxamide] |
| 0.544 | 0.0098 | CC(C)(O)[C@H](F)CNC(=O)c1cnc2ccc(-c3cn[nH]c3)cc2c1NC1COC1 [Example 34, (R)—N-(2-fluoro-3-hydroxy-3-methylbutyl)-4-(oxetan-3-ylamino)-6-(1H-pyrazol-4-yl)quinoline-3-carboxamide] |
| 0.759 | 0.0137 | CC(O)CCNC(=O)c1cnc2ccc(-c3cn[nH]c3)cc2c1NC(C)C (stereo not drawn) [Example 36, N-(3-hydroxybutyl)-4-(isopropylamino)-6-(1H-pyrazol-4-yl)quinoline-3-carboxamide] |
| 0.396 | 0.0025 | CC(C)Nc1c(C(=O)NCCC2(O)CC(F)(F)C2)cnc2ccc(-c3cn[nH]c3)cc12 [Example 42, N-(2-(3,3-difluoro-1-hydroxycyclobutyl)ethyl)-4-(isopropylamino)-6-(1H-pyrazol-4-yl)quinoline-3-carboxamide] |

| EC50 (Human whole blood) [µM] | IC50 (IRAK4) [µM] | SMILES |
| --- | --- | --- |
| 0.549 | 0.0146 | CC(C)Nc1c(C(=O)NCCC(F)(F)F)cnc2ccc(-c3cn[nH]c3)cc12 [Example 43, 4-(isopropylamino)-6-(1H-pyrazol-4-yl)-N-(3,3,3-trifluoropropyl)quinoline-3-carboxamide] |
| 2.2 | – | CC(O)CCNC(=O)c1cnc2ccc(-c3cn[nH]c3)cc2c1NCC(F)F (stereo not drawn) [Example 65, 4-((2,2-difluoroethyl)amino)-N-(3-hydroxybutyl)-6-(1H-pyrazol-4-yl)quinoline-3-carboxamide] |
| – | 0.0836 | CCCc1nc(-c2cnc3ccc(-c4cn[nH]c4)cc3c2NC(C)C)n[nH]1 [Example 125, N-isopropyl-3-(5-propyl-1H-1,2,4-triazol-3-yl)-6-(1H-pyrazol-4-yl)quinolin-4-amine] |
| – | 0.0344 | CC(C)CCc1nc(-c2cnc3ccc(-c4cn[nH]c4)cc3c2NC(C)C)n[nH]1 [Example 126, 3-(5-isopentyl-1H-1,2,4-triazol-3-yl)-N-isopropyl-6-(1H-pyrazol-4-yl)quinolin-4-amine] |
| 0.758 | – | CC(C)Nc1c(-c2cc(C3CCCCN3)no2)cnc2ccc(-c3cn[nH]c3)cc12 (stereo not drawn) [Example 128, N-isopropyl-3-(3-(piperidin-2-yl)isoxazol-5-yl)-6-(1H-pyrazol-4-yl)quinolin-4-amine] |
| – | 0.0388 | CC(C)Nc1c(-c2cn(CCS(C)(=O)=O)nn2)cnc2ccc(-c3cn[nH]c3)cc12 [Example 137, N-isopropyl-3-(1-(2-(methylsulfonyl)ethyl)-1H-1,2,3-triazol-4-yl)-6-(1H-pyrazol-4-yl)quinolin-4-amine] |
| – | 0.0242 | CC(C)Nc1c(C(=O)NCCC(C)(C)O)cnc2ccc(-c3ccncc3)nc12 [Example 145, N-(3-hydroxy-3-methylbutyl)-4-(isopropylamino)-6-(pyridin-4-yl)-1,5-naphthyridine-3-carboxamide] |
| – | 0.0898 | CC(C)Nc1c(C(=O)NCCC(C)(C)O)cnc2ccc(-c3cccnc3)nc12 [Example 146, N-(3-hydroxy-3-methylbutyl)-4-(isopropylamino)-6-(pyridin-3-yl)-1,5-naphthyridine-3-carboxamide] |
| – | 0.9 | CC(C)Nc1c(C(=O)NCCC2CC2)cnc2ccc(Nc3cncc(F)c3)nc12 [Example 147, N-(2-cyclopropylethyl)-6-((5-fluoropyridin-3-yl)amino)-4-(isopropylamino)-1,5-naphthyridine-3-carboxamide] |
| – | 1.28 | CC(C)Nc1c(C(=O)NCCC2CC2)cnc2ccc(-c3cncc(C#N)c3)nc12 [Example 151, 6-(5-cyanopyridin-3-yl)-N-(2-cyclopropylethyl)-4-(isopropylamino)-1,5-naphthyridine-3-carboxamide] |
| – | 0.078 | CC(=O)N[C@H]1CC[C@H](NC(=O)c2cnc3ccc(-c4ccnc(C#N)c4)nc3c2NC(C)C)CC1 [Example 152, N-((1r,4r)-4-acetamidocyclohexyl)-6-(2-cyanopyridin-4-yl)-4-(isopropylamino)-1,5-naphthyridine-3-carboxamide] |
| – | 0.0316 | CC(=O)N[C@H]1CC[C@H](NC(=O)c2cnc3ccc(-c4cccnc4)nc3c2NC(C)C)CC1 [Example 153, N-((1r,4r)-4-acetamidocyclohexyl)-4-(isopropylamino)-6-(pyridin-3-yl)-1,5-naphthyridine-3-carboxamide] |
| – | 0.0927 | CC(=O)N[C@H]1CC[C@H](NC(=O)c2cnc3ccc(-c4cncc(C#N)c4)nc3c2NC(C)C)CC1 [Example 154, N-((1r,4r)-4-acetamidocyclohexyl)-6-(5-cyanopyridin-3-yl)-4-(isopropylamino)-1,5-naphthyridine-3-carboxamide] |
| – | 0.28 | CC(C)Nc1c(C(=O)NCCC2CC2)cnc2ccc(-c3ccnc(C#N)c3)nc12 [Example 157, 6-(2-cyanopyridin-4-yl)-N-(2-cyclopropylethyl)-4-(isopropylamino)-1,5-naphthyridine-3-carboxamide] |
| – | 1.21 | CC(C)Nc1c(C(=O)NC[C@@H](F)C(C)(C)O)cnc2ncc(-c3cn[nH]c3)cc12 [Example 161, (R)—N-(2-fluoro-3-hydroxy-3-methylbutyl)-4-(isopropylamino)-6-(1H-pyrazol-4-yl)-1,8-naphthyridine-3-carboxamide] |
